In US8426437B2, “Pyrroloquinoline derivatives and their use as protein kinases inhibitors” (Pierre Fabre Medicament, priority 2005, dated 2013):

Legend:
TrkB (h) = biological target: T1, TrkB (h) (Homo sapiens, UniProt Q16620); experiment: Upstate kinase panel: TrkB; format: biochemical; settings: compound 10 μM, 10 μM ATP, read-out: % inhibition at 10 μMol
T1 construct: purchased Upstate
Procedure: (§1) These kinases are produced by Upstate and screened according to the respective protocols indicated by the supplier (http://www.upstate.com/features/kp_protocols.asp). Examples 1, 12, 166 and 238 were tested at a concentration of 20 μM, 10 μM, 1 μM and 1 μM respectively in the presence of 10 μM of ATP for examples 1 and 12 and at the concentrations of ATP shown in parentheses for examples 166 and 238. The results shown in Table VII correspond to percentage inhibition of the kinase tested in the presence of the compound, relative to a control effected without the compound.

ALK = ALK (Homo sapiens, UniProt Q9UM73); experiment: Inhibition of kinase ALK (PLCγ1-GST substrate, anti-phosphotyrosine ELISA); format: biochemical; settings: ALK 180 ng/ml, 250 μM ATP, 30 minutes at 30° C.
Chain of ALK (Q9UM73 19-1620, species assumed): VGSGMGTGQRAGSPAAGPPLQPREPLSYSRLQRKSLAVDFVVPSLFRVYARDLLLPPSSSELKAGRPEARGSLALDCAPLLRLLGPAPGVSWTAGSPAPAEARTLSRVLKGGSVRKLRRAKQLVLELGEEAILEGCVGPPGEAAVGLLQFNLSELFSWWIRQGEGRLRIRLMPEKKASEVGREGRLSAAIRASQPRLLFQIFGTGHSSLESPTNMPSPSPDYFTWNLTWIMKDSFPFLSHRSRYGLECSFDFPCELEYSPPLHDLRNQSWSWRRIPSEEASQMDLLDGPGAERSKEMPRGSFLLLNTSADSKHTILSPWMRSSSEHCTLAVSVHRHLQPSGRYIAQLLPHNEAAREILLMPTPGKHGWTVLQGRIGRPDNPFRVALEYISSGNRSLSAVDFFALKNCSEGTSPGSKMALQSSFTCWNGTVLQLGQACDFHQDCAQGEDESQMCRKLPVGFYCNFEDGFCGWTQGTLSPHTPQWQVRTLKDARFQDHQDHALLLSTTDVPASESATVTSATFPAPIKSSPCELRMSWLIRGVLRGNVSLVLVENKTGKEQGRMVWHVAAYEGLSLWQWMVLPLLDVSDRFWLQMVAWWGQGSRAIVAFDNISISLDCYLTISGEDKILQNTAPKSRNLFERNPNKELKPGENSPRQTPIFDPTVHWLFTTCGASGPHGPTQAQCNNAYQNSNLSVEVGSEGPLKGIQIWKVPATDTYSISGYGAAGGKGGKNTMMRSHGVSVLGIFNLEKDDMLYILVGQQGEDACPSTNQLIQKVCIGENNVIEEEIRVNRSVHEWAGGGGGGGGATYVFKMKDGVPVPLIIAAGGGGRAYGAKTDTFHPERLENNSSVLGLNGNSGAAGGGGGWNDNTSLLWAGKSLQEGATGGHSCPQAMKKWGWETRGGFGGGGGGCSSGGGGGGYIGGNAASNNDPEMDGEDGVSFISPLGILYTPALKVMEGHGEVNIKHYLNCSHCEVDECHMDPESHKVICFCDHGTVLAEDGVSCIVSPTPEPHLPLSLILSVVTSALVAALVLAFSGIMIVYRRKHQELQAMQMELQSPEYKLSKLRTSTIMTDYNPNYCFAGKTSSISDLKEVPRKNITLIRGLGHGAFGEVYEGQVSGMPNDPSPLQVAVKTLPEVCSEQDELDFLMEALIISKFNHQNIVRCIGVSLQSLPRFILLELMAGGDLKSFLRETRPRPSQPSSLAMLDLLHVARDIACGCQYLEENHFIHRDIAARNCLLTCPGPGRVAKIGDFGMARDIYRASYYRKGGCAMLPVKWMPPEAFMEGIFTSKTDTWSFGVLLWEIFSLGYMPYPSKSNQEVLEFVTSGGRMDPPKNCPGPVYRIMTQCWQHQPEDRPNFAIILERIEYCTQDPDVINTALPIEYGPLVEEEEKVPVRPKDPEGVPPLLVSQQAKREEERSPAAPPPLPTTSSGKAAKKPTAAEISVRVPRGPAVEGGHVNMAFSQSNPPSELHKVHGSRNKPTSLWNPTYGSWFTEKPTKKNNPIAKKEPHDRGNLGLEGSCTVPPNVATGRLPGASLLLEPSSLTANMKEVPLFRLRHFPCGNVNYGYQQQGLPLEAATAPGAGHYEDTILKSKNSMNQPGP
Procedure: Incubation is carried out for 30 minutes at 30° C. with agitation.
The signal is read in luminescent mode using a luminometer.

TrkA = biological target: T2, TrkA (Homo sapiens, UniProt P04629); experiment: Inhibition of kinase TrkA (Kinase-Glo); format: biochemical; settings: TrkA 4 μg/ml, 30 μM ATP, two hours at 30° C.
T2 construct: purchased Upstate 14-571
T2 sequence (P04629 33-796): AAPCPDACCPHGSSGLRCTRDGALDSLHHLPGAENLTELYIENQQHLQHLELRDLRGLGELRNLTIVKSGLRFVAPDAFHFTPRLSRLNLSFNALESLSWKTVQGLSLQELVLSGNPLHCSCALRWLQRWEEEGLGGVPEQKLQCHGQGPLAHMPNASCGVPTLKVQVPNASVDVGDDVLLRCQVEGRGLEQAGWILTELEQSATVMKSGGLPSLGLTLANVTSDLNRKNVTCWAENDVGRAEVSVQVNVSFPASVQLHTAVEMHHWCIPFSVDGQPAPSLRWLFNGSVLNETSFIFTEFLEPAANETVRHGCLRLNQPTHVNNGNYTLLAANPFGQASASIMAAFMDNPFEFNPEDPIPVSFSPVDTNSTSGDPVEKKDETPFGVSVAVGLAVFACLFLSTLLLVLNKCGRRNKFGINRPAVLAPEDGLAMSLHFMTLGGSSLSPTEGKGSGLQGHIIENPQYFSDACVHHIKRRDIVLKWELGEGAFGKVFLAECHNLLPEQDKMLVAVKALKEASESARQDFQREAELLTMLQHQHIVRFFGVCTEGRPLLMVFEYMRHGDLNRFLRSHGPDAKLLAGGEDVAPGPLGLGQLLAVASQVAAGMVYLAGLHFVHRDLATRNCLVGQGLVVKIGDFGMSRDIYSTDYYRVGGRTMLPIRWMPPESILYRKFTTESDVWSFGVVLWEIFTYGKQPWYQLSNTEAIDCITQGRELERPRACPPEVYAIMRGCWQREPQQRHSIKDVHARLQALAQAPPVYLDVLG
Method in brief: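 TrkA (4 μg/ml) was incubated with 1 mg/ml poly-EY and 30 μM ATP in MOPS pH 7 buffer with Mg acetate, DTT and vanadate, compounds at 10 nM–30 μM final, for 2 h at 30 °C. Remaining ATP was quantified by Kinase-Glo luminescence.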

panel of cell lines = experiment: Inhibition of the proliferation of a panel of cell lines (WST test); format: cell-based; settings: lines of Table XI, four days of incubation
A427 = experiment: WST test, inhibition of proliferation of A427; format: cell-based; settings: Homo sapiens, A-427, 96 h; line A427, tissue of origin Lung (NSCLC); four days of incubation, WST-1
Procedure: (§2) The inhibition of the proliferation of cell lines by certain compounds of the invention was tested. […] In the example, the lines used were derived from cancers of the uterus, central nervous system, colon, stomach, head and neck, lung, breast, pancreas, and kidney, as well as from lymphoma, myeloma, pleura, or from melanoma.
(§3) The WST test for measuring cell proliferation and viability (Roche Applied Science) is based on cleavage of a tetrazolium salt by the mitochondrial dehydrogenases in viable cells.
(§4) After four days of incubation of the compounds with the cell line, 14 μl of WST-1 reagent is added to each well and the plates are incubated for four hours at 37° in humid atmosphere at 5% CO2. The level of formazan formed is then determined by spectrophotometry at 450 nm whereas a reference is measured at 650 nm. A control with untreated cells is represented by six wells per plate and the group of treated cells is produced in triplicate for each of the concentrations measured.
(§5) The compounds are tested at five concentrations between 10 nM and 100 μM and two cytotoxic agents are used as controls: adriamycin and 5-fluorouracil.

MDA-231 = experiment: WST test, inhibition of proliferation of MDA-231; format: cell-based; settings: Homo sapiens, MDA-MB-231, 96 h; line MDA-231, tissue of origin Breast; four days of incubation, WST-1
Procedure: as §2, §3, §4, §5

H69 = experiment: WST test, inhibition of proliferation of H69; format: cell-based; settings: Homo sapiens, NCI-H69, 96 h; line H69, tissue of origin Lung (SCLC); four days of incubation, WST-1
Procedure: as §2, §3, §4, §5

SKNAS = experiment: WST test, inhibition of proliferation of SKNAS; format: cell-based; settings: Homo sapiens, SK-N-AS, 96 h; line SKNAS, tissue of origin CMS; four days of incubation, WST-1
Procedure: as §2, §3, §4, §5

SKUT1B = experiment: WST test, inhibition of proliferation of SKUT1B; format: cell-based; settings: Homo sapiens, 96 h; line SKUT1B, tissue of origin Uterus; four days of incubation, WST-1
Procedure: as §2, §3, §4, §5

A498 = experiment: WST test, inhibition of proliferation of A498; format: cell-based; settings: Homo sapiens, 96 h; line A498, tissue of origin Kidney; four days of incubation, WST-1
Procedure: as §2, §3, §4, §5

CAPAN2 = experiment: WST test, inhibition of proliferation of CAPAN2; format: cell-based; settings: Homo sapiens, Capan-2, 96 h; line CAPAN2, tissue of origin Pancreas; four days of incubation, WST-1
Procedure: as §2, §3, §4, §5

RAJI = experiment: WST test, inhibition of proliferation of RAJI; format: cell-based; settings: Homo sapiens, 96 h; line RAJI, tissue of origin Lymphoma; four days of incubation, WST-1
Procedure: as §2, §3, §4, §5

A172 = experiment: WST test, inhibition of proliferation of A172; format: cell-based; settings: Homo sapiens, A 172, 96 h; line A172, tissue of origin CMS; four days of incubation, WST-1
Procedure: as §2, §3, §4, §5

MLCK (h) = experiment: Upstate kinase panel: MLCK; format: biochemical, human; settings: compound 1 μM, ATP (10)
Procedure: as §1

T1 sequence (Q16620 32-822): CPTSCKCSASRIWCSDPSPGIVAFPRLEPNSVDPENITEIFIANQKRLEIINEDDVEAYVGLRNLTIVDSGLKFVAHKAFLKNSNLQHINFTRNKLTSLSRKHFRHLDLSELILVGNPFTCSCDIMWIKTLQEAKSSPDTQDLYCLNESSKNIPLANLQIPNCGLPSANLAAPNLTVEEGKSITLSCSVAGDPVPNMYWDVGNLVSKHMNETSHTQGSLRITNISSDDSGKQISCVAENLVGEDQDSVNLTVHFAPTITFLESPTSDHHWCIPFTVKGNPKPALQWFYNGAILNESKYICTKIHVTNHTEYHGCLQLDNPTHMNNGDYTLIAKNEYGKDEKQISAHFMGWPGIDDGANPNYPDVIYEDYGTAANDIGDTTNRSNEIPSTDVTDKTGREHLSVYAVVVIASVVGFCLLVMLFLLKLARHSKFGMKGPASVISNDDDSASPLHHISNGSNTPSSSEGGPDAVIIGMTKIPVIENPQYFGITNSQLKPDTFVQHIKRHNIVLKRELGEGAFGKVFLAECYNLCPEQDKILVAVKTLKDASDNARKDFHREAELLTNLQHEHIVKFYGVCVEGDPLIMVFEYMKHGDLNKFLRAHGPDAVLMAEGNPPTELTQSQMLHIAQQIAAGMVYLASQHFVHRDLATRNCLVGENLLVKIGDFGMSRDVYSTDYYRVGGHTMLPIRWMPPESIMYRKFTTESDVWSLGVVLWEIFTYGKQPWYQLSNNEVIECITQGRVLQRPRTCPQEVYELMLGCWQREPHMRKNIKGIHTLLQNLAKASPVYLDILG

SMILES	inhibition at 10 µM (TrkB (h)) [%]	IC50 (ALK) [µM]	IC50 (TrkA) [µM]	inhibition of proliferation of cell lines (in words) (panel of cell lines)	IC50 (A427) [µM]	IC50 (MDA-231) [µM]	IC50 (H69) [µM]	IC50 (SKNAS) [µM]	IC50 (SKUT1B) [µM]	IC50 (A498) [µM]	IC50 (CAPAN2) [µM]	IC50 (RAJI) [µM]	IC50 (A172) [µM]	% inhibition at 1 μMol (MLCK (h)) [%]
CCOC(=O)c1c[nH]c2c(=O)[nH]c3ccc(S(=O)(=O)Nc4ccc(F)cc4)cc3c12 [Compound 12, 8-(4-Fluorophenylsulfamoyl)-4-oxo-4,5-dihydro-3H-pyrrolo[2,3-c]quinoline-1-ethyl carboxylate]	98	0.1 to 1	1 to 10											
CCOC(=O)c1c[nH]c2c(=O)[nH]c3ccc(-c4cccc(S(C)(=O)=O)c4)cc3c12 [Compound 238, 8-(3-Methanesulfonyl-phenyl)-4-oxo-4,5-dihydro-3H-pyrrolo[2,3-c]quinoline-1-ethyl carboxylate]				inhibition of proliferation	36	41	0.5	12	33	49	47	34	13	21
